Reference: patent US20250122183A1 (Pfizer Inc., priority 2023, published 2025)
Read-outs that look alike come from different tables or passages of the source.

Columns and labels:
[1] = target: KAT6A Full length enzyme (Homo sapiens (Human), UniProt Q92794); assay: KAT6A assay (SAMDI-MS acetylation of H3 1-21 peptide); assay type: biochemical; conditions: replicate number in parentheses
[2] = target: KAT7+JADE1+EAF6+ING5 4 protein complex (Homo sapiens (Human), UniProt O95251); assay: KAT7 JADE1 assay (SAMDI-MS acetylation of H3 1-21 peptide); assay type: biochemical; conditions: replicate number in parentheses
[3] = Morrison equation fit, read-out: KAT6A Ki (nM) (replicate number)
[4] = Morrison equation fit, read-out: KAT7 JADE1 Ki (nM) (replicate number)
[5] = read-out: KAT6A Ki (nM) (replicate)
[6] = read-out: KAT7 JADE1 Ki (nM) (replicate)

Chain of KAT6A Full length enzyme (Q92794 other isoform, or with tags, fused parts or gaps): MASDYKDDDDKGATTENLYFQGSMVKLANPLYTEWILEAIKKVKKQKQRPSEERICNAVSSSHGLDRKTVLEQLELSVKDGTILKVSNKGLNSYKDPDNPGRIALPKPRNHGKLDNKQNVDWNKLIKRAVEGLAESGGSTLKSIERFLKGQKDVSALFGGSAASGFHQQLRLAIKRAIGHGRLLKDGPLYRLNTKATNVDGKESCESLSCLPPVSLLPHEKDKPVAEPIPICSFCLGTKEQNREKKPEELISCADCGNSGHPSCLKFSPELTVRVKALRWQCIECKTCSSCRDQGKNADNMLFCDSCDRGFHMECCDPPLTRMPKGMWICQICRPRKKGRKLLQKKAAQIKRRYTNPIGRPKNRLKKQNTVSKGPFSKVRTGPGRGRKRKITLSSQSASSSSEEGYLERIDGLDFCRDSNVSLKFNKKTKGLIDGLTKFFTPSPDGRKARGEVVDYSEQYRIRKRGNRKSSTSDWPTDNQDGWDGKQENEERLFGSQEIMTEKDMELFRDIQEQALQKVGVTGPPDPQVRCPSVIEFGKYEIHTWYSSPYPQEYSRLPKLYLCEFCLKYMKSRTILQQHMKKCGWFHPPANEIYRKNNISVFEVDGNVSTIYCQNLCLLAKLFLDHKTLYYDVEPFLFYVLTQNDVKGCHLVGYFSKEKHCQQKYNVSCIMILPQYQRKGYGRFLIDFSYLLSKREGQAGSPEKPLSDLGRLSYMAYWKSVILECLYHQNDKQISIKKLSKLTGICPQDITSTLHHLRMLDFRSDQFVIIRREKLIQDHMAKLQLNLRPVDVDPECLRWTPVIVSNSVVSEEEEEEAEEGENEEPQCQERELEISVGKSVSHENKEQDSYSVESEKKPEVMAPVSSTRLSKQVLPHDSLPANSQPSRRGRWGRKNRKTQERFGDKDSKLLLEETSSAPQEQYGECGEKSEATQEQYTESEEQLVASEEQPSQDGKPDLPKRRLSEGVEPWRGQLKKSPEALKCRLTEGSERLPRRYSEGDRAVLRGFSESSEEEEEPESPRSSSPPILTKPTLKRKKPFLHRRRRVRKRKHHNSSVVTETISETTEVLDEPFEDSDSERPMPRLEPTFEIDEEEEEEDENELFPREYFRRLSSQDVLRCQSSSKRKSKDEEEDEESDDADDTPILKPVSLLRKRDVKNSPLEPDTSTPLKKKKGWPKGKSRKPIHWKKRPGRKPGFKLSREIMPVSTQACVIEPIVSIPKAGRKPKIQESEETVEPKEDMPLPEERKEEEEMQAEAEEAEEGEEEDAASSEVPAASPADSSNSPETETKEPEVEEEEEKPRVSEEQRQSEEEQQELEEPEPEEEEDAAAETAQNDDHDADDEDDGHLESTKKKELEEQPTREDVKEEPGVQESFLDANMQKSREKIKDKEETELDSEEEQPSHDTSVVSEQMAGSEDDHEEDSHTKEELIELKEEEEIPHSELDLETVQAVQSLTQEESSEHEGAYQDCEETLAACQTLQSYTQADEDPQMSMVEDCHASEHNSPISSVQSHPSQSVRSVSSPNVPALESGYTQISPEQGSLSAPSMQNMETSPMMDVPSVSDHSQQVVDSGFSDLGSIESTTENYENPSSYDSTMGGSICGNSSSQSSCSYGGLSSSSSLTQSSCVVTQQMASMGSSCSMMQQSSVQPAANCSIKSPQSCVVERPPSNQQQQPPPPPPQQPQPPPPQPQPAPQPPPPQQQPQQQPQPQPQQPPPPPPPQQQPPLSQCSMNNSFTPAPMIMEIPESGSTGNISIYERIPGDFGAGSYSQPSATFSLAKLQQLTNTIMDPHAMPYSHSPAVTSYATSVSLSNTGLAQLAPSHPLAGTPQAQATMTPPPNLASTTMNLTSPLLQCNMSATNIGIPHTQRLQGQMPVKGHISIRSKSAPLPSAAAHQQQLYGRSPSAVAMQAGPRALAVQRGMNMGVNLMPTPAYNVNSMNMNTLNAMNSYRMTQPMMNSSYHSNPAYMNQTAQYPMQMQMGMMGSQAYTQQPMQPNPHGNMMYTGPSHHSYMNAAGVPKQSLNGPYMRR

Compound	Ki [1, 3] [nM]	Ki [2, 4] [nM]	Ki [1, 5] [nM]	Ki [2, 6] [nM]
COc1cc2c(NS(=O)(=O)c3c(OC)cc(N4C(=O)CCC4C)cc3OC)noc2cc1Nc1cc(C2CC2)n[nH]1 (single isomer, unassigned) [Example 244, N-{6-[(3-cyclopropyl-1 H-pyrazol-5-yl)amino]-5-methoxy-1,2-benzoxazol-3-yl}-2,6-dimethoxy-4-(2-methyl-5-oxopyrrolidin-1-yl)benzene-1-sulfonamide]	0.2	1.3	–	–
COc1cc2c(NS(=O)(=O)c3c(OC)cc(C4CCN([C@@H]5CCOC5)C4)cc3OC)noc2cc1Nc1cc(C2CC2)n[nH]1 (single isomer, unassigned) [Example 161]	1.2	5.5	–	–
COc1cc2c(NS(=O)(=O)c3c(OC)cc(N4CC(OC)C4)cc3OC)noc2cc1Nc1cc(C2CC2)n[nH]1 [Example 253, N-{6-[(3-cyclopropyl-1H-pyrazol-5-yl)amino]-5-methoxy-1,2-benzoxazol-3-yl}-2,6-dimethoxy-4-(3-methoxyazetidin-1-yl)benzene-1-sulfonamide]	–	–	0.6	5
COc1cc2c(NS(=O)(=O)c3c(OC)cc(CN4CCC[C@@H](F)C4)cc3OC)noc2cc1Nc1cc(C2CC2)n[nH]1 (single isomer, unassigned) [Example 198, N-{6-[(3-cyclopropyl-1H-pyrazol-5-yl)amino]-5-methoxy-1,2-benzoxazol-3-yl}-4-[(3-fluoropiperidin-1-yl)methyl]-2,6-dimethoxybenzene-1-sulfonamide]	1.1	5.9	–	–
COc1cc2c(NS(=O)(=O)c3c(OC)cccc3OC)noc2cc1Nc1[nH]nc(C)c1C(N)=O [Example 57, 5-({3-[(2,6-dimethoxybenzene-1-sulfonyl)amino]-5-methoxy-1,2-benzoxazol-6-yl}amino)-3-methyl-1H-pyrazole-4-carboxamide]	6.2	> 2340	–	–
COc1cc2c(NS(=O)(=O)c3c(OC)cc(C(=O)N4CCC(F)(F)CC4)cc3OC)noc2cc1Nc1cc(C2CC2)n[nH]1 [Example 263, N-{6-[(3-cyclopropyl-1H-pyrazol-5-yl)amino]-5-methoxy-1,2-benzoxazol-3-yl}-4-(4,4-difluoropiperidine-1-carbonyl)-2,6-dimethoxybenzene-1-sulfonamide]	–	–	1.4	9.8
COc1cc2c(NS(=O)(=O)c3c(OC)cc(N4C(=O)CCC45CCC5)cc3OC)noc2cc1Nc1cc(C2CC2)n[nH]1 [Example 255, N-{6-[(3-cyclopropyl-1 H-pyrazol-5-yl)amino]-5-methoxy-1,2-benzoxazol-3-yl}-2,6-dimethoxy-4-(6-oxo-5-azaspiro[3.4]octan-5-yl)benzene-1-sulfonamide]	–	–	0.8	4.2
COc1cc2c(NS(=O)(=O)c3c(OC)cc(-c4cnc(N(C)C)cn4)cc3OC)noc2cc1Nc1cc(C2CC2)n[nH]1 [Example 217, N-{6-[(3-cyclopropyl-1H-pyrazol-5-yl)amino]-5-methoxy-1,2-benzoxazol-3-yl}-4-[5-(dimethylamino)pyrazin-2-yl]-2,6-dimethoxybenzene-1-sulfonamide]	0.2	1.9	–	–
COc1cc2c(NS(=O)(=O)c3c(OC)cccc3OC)noc2cc1Nc1[nH]nc(C)c1C#N [Example 45, N-{6-[(4-cyano-3-methyl-1H-pyrazol-5-yl)amino]-5-methoxy-1,2-benzoxazol-3-yl}-2,6-dimethoxybenzene-1-sulfonamide]	2.3	804	–	–
COc1cc2c(NS(=O)(=O)c3c(OC)cc(CN4CCC(C(F)(F)F)C4)cc3OC)noc2cc1Nc1cc(C2CC2)n[nH]1 (stereo not shown) [Example 205, N-{6-[(3-cyclopropyl-1H-pyrazol-5-yl)amino]-5-methoxy-1,2-benzoxazol-3-yl}-2,6-dimethoxy-4-{[3-(trifluoromethyl)pyrrolidin-1-yl]methyl}benzene-1-sulfonamide]	1.4	6	–	–
COc1cc2c(NS(=O)(=O)c3c(OC)cc(C4CCCN4CC(F)F)cc3OC)noc2cc1Nc1cc(C2CC2)n[nH]1 (single isomer, unassigned) [Example 165, N-{6-[(3-cyclopropyl-1H-pyrazol-5-yl)amino]-5-methoxy-1,2-benzoxazol-3-yl}-4-[1-(2,2-difluoroethyl)pyrrolidin-2-yl]-2,6-dimethoxybenzene-1-sulfonamide]	1.4	5	–	–
N-{6-[(3-cyclopropyl-1 H-pyrazol-5-yl)amino]-5-methoxy-1,2-benzoxazol-3-yl}-4-(4,4-difluoro-1-methylpiperidin-3-yl)-2,6-dimethoxybenzene-1-sulfonamide [Example 176]	1	2.7	–	–
COc1cc2c(NS(=O)(=O)c3c(OC)cc(CN4CCC(F)(F)C4)cc3OC)noc2cc1Nc1cc(C2CC2)n[nH]1 [Example 196, N-{6-[(3-cyclopropyl-1H-pyrazol-5-yl)amino]-5-methoxy-1,2-benzoxazol-3-yl}-4-[(3,3-difluoropyrrolidin-1-yl)methyl]-2,6-dimethoxybenzene-1-sulfonamide]	0.9	4	–	–
COc1cccc(OC)c1S(=O)(=O)Nc1noc2cc(Nc3ncco3)cc(OC)c12 [Example 17, 2,6-dimethoxy-N-{4-methoxy-6-[(1,3-oxazol-2-yl)amino]-1,2-benzoxazol-3-yl}benzene-1-sulfonamide]	1.9	1230	–	–
COc1cc2c(NS(=O)(=O)c3c(OC)cc(N4CC(F)C4)cc3OC)noc2cc1Nc1cc(C2CC2)n[nH]1 [Example 252, N-{6-[(3-cyclopropyl-1H-pyrazol-5-yl)amino]-5-methoxy-1,2-benzoxazol-3-yl}-4-(3-fluoroazetidin-1-yl)-2,6-dimethoxybenzene-1-sulfonamide]	–	–	0.8	5.7
COc1cc2c(NS(=O)(=O)c3c(OC)cc(C4CCCCN4C)cc3OC)noc2cc1Nc1cc(C2CC2)n[nH]1 (single isomer, unassigned) [Example 172, N-{6-[(3-cyclopropyl-1 H-pyrazol-5-yl)amino]-5-methoxy-1,2-benzoxazol-3-yl}-2,6-dimethoxy-4-(1-methylpiperidin-2-yl)benzene-1-sulfonamide]	4.4	34.1	–	–
COc1cc2c(NS(=O)(=O)c3c(OC)cc(-c4ccc(C)nn4)cc3OC)noc2cc1Nc1cc(C2CC2)n[nH]1 [Example 219, N-{6-[(3-cyclopropyl-1H-pyrazol-5-yl)amino]-5-methoxy-1,2-benzoxazol-3-yl}-2,6-dimethoxy-4-(6-methylpyridazin-3-yl)benzene-1-sulfonamide]	0.2	1.9	–	–
COc1cc2c(NS(=O)(=O)c3c(OC)cc(C4CN(C)CC(F)(F)C4)cc3OC)noc2cc1Nc1cc(C2CC2)[nH]n1 (single isomer, unassigned) [Example 228, N-{6-[(5-cyclopropyl-1 H-pyrazol-3-yl)amino]-5-methoxy-1,2-benzoxazol-3-yl}-4-(5,5-difluoro-1-methylpiperidin-3-yl)-2,6-dimethoxybenzene-1-sulfonamide]	0.8	6.2	–	–
COc1cc2c(NS(=O)(=O)c3c(OC)cccc3OC)noc2cc1Nc1cc(C(=O)O)n[nH]1 [Example 54, 5-({3-[(2,6-dimethoxybenzene-1-sulfonyl)amino]-5-methoxy-1,2-benzoxazol-6-yl}amino)-1H-pyrazole-3-carboxylic acid]	2	> 2340	–	–
COc1cc2c(NS(=O)(=O)c3c(OC)cccc3OC)noc2cc1Nc1c(C(N)=O)c(C)nn1C [Example 58, 5-({3-[(2,6-dimethoxybenzene-1-sulfonyl)amino]-5-methoxy-1,2-benzoxazol-6-yl}amino)-1,3-dimethyl-1H-pyrazole-4-carboxamide]	5.7	> 12500	–	–
COc1cc2c(NS(=O)(=O)c3c(OC)cc(C4CCCN([C@@H]5CCOC5)C4)cc3OC)noc2cc1Nc1cc(C2CC2)n[nH]1 (single isomer, unassigned) [Example 158]	1.2	8.7	–	–
COc1cc2c(NS(=O)(=O)c3c(OC)cccc3OC)noc2cc1Nc1noc(C)n1 [Example 37, 2,6-dimethoxy-N-{5-methoxy-6-[(5-methyl-1,2,4-oxadiazol-3-yl)amino]-1,2-benzoxazol-3-yl}benzene-1-sulfonamide]	15.9	> 2340	–	–
COc1cc2c(NS(=O)(=O)c3c(OC)cc(C4C[C@H](F)CN4C)cc3OC)noc2cc1Nc1cc(C2CC2)n[nH]1 (stereo partly drawn) [Example 181, N-{6-[(3-cyclopropyl-1 H-pyrazol-5-yl)amino]-5-methoxy-1,2-benzoxazol-3-yl}-4-[(4S)-4-fluoro-1-methylpyrrolidin-2-yl]-2,6-dimethoxybenzene-1-sulfonamide]	2	6.2	–	–
COc1cc2c(NS(=O)(=O)c3c(OC)cc(N4C(=O)CCC4C)cc3OC)noc2cc1Nc1cc(C2CC2)n[nH]1 (single isomer, unassigned) [Example 245, N-{6-[(3-cyclopropyl-1 H-pyrazol-5-yl)amino]-5-methoxy-1,2-benzoxazol-3-yl}-2,6-dimethoxy-4-(2-methyl-5-oxopyrrolidin-1-yl)benzene-1-sulfonamide]	0.7	3.6	–	–
COc1cc2c(NS(=O)(=O)c3c(OC)cc(C4CCOC4)cc3OC)noc2cc1Nc1cc(C2CC2)n[nH]1 (single isomer, unassigned) [Example 267, N-{6-[(3-cyclopropyl-1H-pyrazol-5-yl)amino]-5-methoxy-1,2-benzoxazol-3-yl}-2,6-dimethoxy-4-(oxolan-3-yl)benzene-1-sulfonamide]	–	–	1.3	9.3
COc1cc2c(NS(=O)(=O)c3c(OC)cc(-c4ccn(C)n4)cc3OC)noc2cc1Nc1cc(C2CC2C)n[nH]1 (single isomer, unassigned) [Example 241, 2,6-dimethoxy-N-(5-methoxy-6-{[3-(2-methylcyclopropyl)-1H-pyrazol-5-yl]amino}-1,2-benzoxazol-3-yl)-4-(1-methyl-1H-pyrazol-3-yl)benzene-1-sulfonamide]	2.6	75.3	–	–
